Data on 19 molecules can be found in patent US12458695B2, “Dosing regimens and related compositions and methods” (Apellis Pharmaceuticals, Inc., priority 2017, dated 2025).

By IC50 is commonly meant the concentration needed to halve the response being measured.

Tested on in the first series: not listed separately
Kind of series: Inhalation studies, single dose and 14 day repeated dose. The note with it: cynomolgus monkey, in vivo, inhaled or intranasal; 14 day repeated dose; read-out: highest inhaled dose tested without drug-related findings. The procedure:
Inhalation studies of single dose or repeated dosing were conducted in dog and cynomolgus monkey. […] These doses were 25 mg/kg/d in a 7 day repeated dose study in the dog, 80 mg/kg in a single dose study in the monkey, and 30 mg/kg/day in a 14 day repeated dose in the monkey.
In the case of `CC[C@H](C)[C@H](NC(C)=O)C(=O)N[C@H]1CSSC[C@@H](C(=O)N[C@H](C(N)=O)[C@@H](C)O)NC(=O)[C@H](CCCNC(=N)N)NC(=O)[C@H](Cc2cnc[nH]2)NC(=O)[C@H](C)NC(=O)CNC(=O)[C@H](Cc2c[nH]c3ccccc23)NC(=O)[C@H](CC(=O)O)NC(=O)[C@H](CCC(N)=O)NC(=O)[C@H](Cc2cn(C)c3ccccc23)NC(=O)[C@H](C(C)C)NC1=O` [CA28], the NOAEL at 336 h was determined as 30 mg/kg/day.

Tested on in the next series: not listed separately
Kind of series: Phase 1 single and multiple ascending dose trial of nebulized CA28 in healthy volunteers. The class given is in vivo, human. The settings on record: 30 mg/day inhaled; after 10 days of treatment. The procedure: In the single ascending dose part of the trial, 16 subjects were enrolled in four cohorts of four subjects each.
Four subjects were enrolled in the first cohort of the multiple ascending dose part of the trial. These subjects were to receive 14 consecutive days of treatment with a 60 mg/day dose of the drug. […] The trial was paused and subsequently resumed, with subjects receiving 30 mg/day. […] The trial was then terminated.
Both subjects responded within hours to first-line antibiotic treatment, which is indicative of bacterial pathogenesis. In this trial, subjects were vaccinated against Neisseria meningitides and closely monitored for signs of infections. While the bacterial cultures were all negative, it is believed that Haemophilus influenzae or Streptococcus pneumoniae might have been implicated in the episodes of fever that were observed because C3 deficient individuals are known to be at increased risk of infection with Neisseria meningitidis, Haemophilus influenzae and Streptococcus pneumoniae. Vaccines against these three pathogens are available, and it is believed that the risk of infection can be addressed by vaccination, potentially with addition of prophylactic antibiotics (e.g., penicillin V).
On to `CC[C@H](C)[C@H](NC(C)=O)C(=O)N[C@H]1CSSC[C@@H](C(=O)N[C@H](C(N)=O)[C@@H](C)O)NC(=O)[C@H](CCCNC(=N)N)NC(=O)[C@H](Cc2cnc[nH]2)NC(=O)[C@H](C)NC(=O)CNC(=O)[C@H](Cc2c[nH]c3ccccc23)NC(=O)[C@H](CC(=O)O)NC(=O)[C@H](CCC(N)=O)NC(=O)[C@H](Cc2cn(C)c3ccccc23)NC(=O)[C@H](C(C)C)NC1=O` [CA28], for which the “adverse event possibly related to pharmacology” value was “Another subject developed signs and symptoms consistent with a potential bacterial infection”.

Still in this series, the particulars now being: 60 mg/day inhaled; following nine days of treatment.
`CC[C@H](C)[C@H](NC(C)=O)C(=O)N[C@H]1CSSC[C@@H](C(=O)N[C@H](C(N)=O)[C@@H](C)O)NC(=O)[C@H](CCCNC(=N)N)NC(=O)[C@H](Cc2cnc[nH]2)NC(=O)[C@H](C)NC(=O)CNC(=O)[C@H](Cc2c[nH]c3ccccc23)NC(=O)[C@H](CC(=O)O)NC(=O)[C@H](CCC(N)=O)NC(=O)[C@H](Cc2cn(C)c3ccccc23)NC(=O)[C@H](C(C)C)NC1=O` [CA28]: the “adverse event possibly related to pharmacology” value was “one subject developed signs and symptoms consistent with a potential bacterial infection”.

Staying with this series, now noted: single inhaled dose 20, 60, 150 or 350 mg.
On to `CC[C@H](C)[C@H](NC(C)=O)C(=O)N[C@H]1CSSC[C@@H](C(=O)N[C@H](C(N)=O)[C@@H](C)O)NC(=O)[C@H](CCCNC(=N)N)NC(=O)[C@H](Cc2cnc[nH]2)NC(=O)[C@H](C)NC(=O)CNC(=O)[C@H](Cc2c[nH]c3ccccc23)NC(=O)[C@H](CC(=O)O)NC(=O)[C@H](CCC(N)=O)NC(=O)[C@H](Cc2cn(C)c3ccccc23)NC(=O)[C@H](C(C)C)NC1=O` [CA28], for which the safety and tolerability result was “well tolerated and no serious adverse events were reported”.

For another series, the system named is complement activation.
Assay: not given
The settings on record: relative to compstatin amidated at the C-terminus; published data; cited from earlier work.
Regarding “Ac-ICV(1-Nal)QDWGAHRCT-COOH [Ac V4(1-Nal)/H9A-OH]”, the Activity over compstatin is recorded as 30xmore.
With “Ac-ICV(2-Igl)QDWGAHRCT-CONH2 [Ac-V42Igl/H9A]”, the Activity over compstatin was 39xmore.
“Ac-ICV(2-Igl)QDWGAHRCT-COOH [Ac-V42Igl/H9A-OH]”: the Activity over compstatin is 37xmore.
On to “Ac-ICV(2-Nal)QDWGAHRCT-CONH2 [Ac-V4(2-Nal)/H9A]”, for which the Activity over compstatin was 99xmore.
For “Ac-ICV(2-Nal)QDWGAHRCT-COOH [Ac V4(2-Nal)/H9A-OH]”, the Activity over compstatin was 38xmore.
Take “Ac-ICV(5-methyl-W)QDWGAHRCT-CONH2 [Ac-V4(5-MeW)/H9A]”: the Activity over compstatin is on record as 67xmore.
For “Ac-ICV(5fW)QDWGAHRCT-CONH2 [Ac-V4(5fW)/H9A]”, the Activity over compstatin is recorded as 31xmore.
As to “Ac-ICV(Bpa)QDWGAHRCT-CONH2 [Ac-V4(Bpa)/H9A]”, the Activity over compstatin was 86xmore.
Take “Ac-ICV(Bpa)QDWGAHRCT-COOH [Ac-V4(Bpa)/H9A-OH]”: the Activity over compstatin is recorded as 49xmore.
Take “Ac-ICV(Bta)QDWGAHRCT-CONH2 [Ac-V4(Bta)/H9A]”: the Activity over compstatin is listed as 64xmore.
Regarding “Ac-ICV(Bta)QDWGAHRCT-COOH [Ac-V4(Bta)/H9A-OH]”, the Activity over compstatin is on record as 65xmore.
As to “Ac-ICVDhtQDWGAHRCT-COOH [Ac-V4Dht/H9A-OH]”, the Activity over compstatin is 5xmore.
In the case of Ac-ICVVQDWGHHRCT-CONH2 [Ac-compstatin], the Activity over compstatin is listed as 3xmore.
As to Ac-ICVWQDWGAHRCT-CONH2 [Ac-V4W/H9A], the Activity over compstatin was 45xmore.
Regarding “Ac-ICVWQDWGAHRCdT-COOH [Ac-V4W/H9A/T13dT-OH]”, the Activity over compstatin was 55xmore.
In the case of Ac-ICVYQDWGAHRCT-CONH2 [Ac-V4Y/H9A], the Activity over compstatin was 14xmore.
Take “H-GICV(6fW)QD(6fW)GAHRCTN-COOH (GICVXQDXGAHRCTN; not fully specified; 6-fluoro-Trp at V4 and W7; SITE 1 N-term H; MOD_RES 5 6-fluoro-L-tryptophan; MOD_RES 8 6-fluoro-L-tryptophan; SITE 15 C-term COOH) [+G/V4(6fW)/W7(6fW)H9A+N-OH]”: the Activity over compstatin was 126xmore.

For the next series, the system named is alternative pathway-mediated erythrocyte lysis.
Assay: not given
The settings on record: alternative pathway-mediated erythrocyte lysis assay (WO2004/026328); cited from earlier work.
`CC[C@H](C)[C@H](N)C(=O)N[C@H]1CSSC[C@@H](C(=O)N[C@H](C(N)=O)[C@@H](C)O)NC(=O)[C@H](CCCN=C(N)N)NC(=O)[C@H](Cc2cnc[nH]2)NC(=O)[C@H](Cc2cnc[nH]2)NC(=O)CNC(=O)[C@H](Cc2c[nH]c3ccccc23)NC(=O)[C@H](CC(=O)O)NC(=O)[C@H](CCC(N)=O)NC(=O)[C@H](C(C)C)NC(=O)[C@H](C(C)C)NC1=O` [Compstatin]: the IC50 was 12 µM.
